Earlier results on three compounds are cited in patent US6534473B1, “Process for the manufacture of tablet detergent compositions” (Unilever Patent Holdings BV, priority 1998, dated 2003).

Read-outs that look alike come from different tables or passages of the source. Where only a bound is given, the exact number is not on record here.

[1] abbreviates: at 20° C., other common materials, by contrast.

Take `O=P(O)(O)OP(=O)(O)OP(=O)(O)O` [Sodium tripolyphosphate anhydrous]: the “Water Solubility” value under setting [1] was 15 g/100 g.
For `NC(N)=O` [Urea], where the note is “at 20° C.”, the solubility in water result is “exceeding 100 gms per 100 ml water”. The “Water Solubility” value (grams of solid to form a saturated solution in 100 grams of water at 20° C., highly water-soluble materials) is given as greater than 100 g/100 g.
Regarding `O=BO[O-].[Na+]` [Sodium perborate anhydrous], the “Water Solubility” value under setting [1] is 3.7 g/100 g.
